Where two headings read alike, the source gives them in different places.
Test system: 2-phenyl-1,4-benzoquinone-induced writhing
Assay: 2-phenyl-1,4-benzoquinone-induced writhing test in mice (analgesia)
Assay type: in vivo
Conditions: Mus musculus, read-out: Inhibition of Writhing ED50
Description: Compounds of the present invention are useful as analgesic agents due to their ability to alleviate pain in mammals. […] Exptl. Biol. Med. 95, 729 (1957)]. The analgesic activity of some of the compounds expressed in terms of the ED50 values for inhibition of writhing are given in TABLE I.

`CN1CC[C@@]2(C)c3cc(OC(=O)Oc4ccc(Cl)cc4)ccc3N(C)[C@@H]12.O=C(O)/C=C/C(=O)O` (relative stereo) [4-Chlorophenyl (3aS-cis)-1,2,3,3a,8,8a-hexahydro-1,3a,8-trimethylpyrrolo [2,3-b]indol-5-yl carbonate fumarate] gave an ED50 (sc, subcutaneous) of 0.74 mg/kg.

`CN1CC[C@@]2(C)c3cc(O)ccc3N(C)[C@@H]12` [eseroline salicylate, reference compound] was tested, and the ED50 (sc, subcutaneous) was 0.52 mg/kg.

Work on `CN1CC[C@@]2(C)c3cc(OC(=O)OC(C)(C)C)cc(Br)c3N(C)[C@@H]12` [(3aS-cis)-7-Bromo-1,2,3,3a,8,8a-hexahydro-1,3a,8-trimethylpyrrolo[2,3-b]indol-5-yl t-butyl carbonate sesquifumarate] yielded an ED50 (oral) of 0.4 mg/kg and an ED50 (sc, subcutaneous) of 0.16 mg/kg.

Reference: patent US4971992A, “Carbonate derivatives of eseroline” (priority 1989, dated 1990)
